Experiments:
[1] = tested on: mustard beetle (Phaedon cochleariae); assay: Phaedon test (PHAECO spray treatment), Example 7; type: in vivo; conditions: application rate 20 g/ha, china cabbage leaf discs sprayed, after 7 days
Method: Phaedon Test (PHAECO Spray Treatment)
(§1) • Solvent: 78.0 parts by weight of acetone • 1.5 parts by weight of dimethylformamide • Emulsifier: 0.5 part by weight of alkylaryl polyglycol ether
To prepare an active ingredient formulation, 1 part by weight of active ingredient is mixed with the stated amounts of solvent and emulsifier, and the concentrate is diluted with emulsifier-containing water to the desired concentration. Leaf discs from china cabbage (Brassica pekinensis) are sprayed with an active ingredient formulation of the desired concentration and, after drying, populated with larvae of the mustard beetle (Phaedon cochleariae).
After 7 days, the efficacy in % is determined. 100% means that all beetle larvae were killed; 0% means that no beetle larvae were killed.

[2] = logP by HPLC on reverse-phase column (EEC Directive 79/831 Annex V.A8); type: physicochemical; conditions: HPLC-MS
Method: The logP values reported in the above Tables and Preparation Examples were determined according to EEC Directive 79/831 Annex V.A8 by HPLC (High Performance Liquid Chromatography) on a reverse-phase column (C18). Temperature 43° C.

[3] = tested on: red spider mite (Tetranychus urticae); assay: Tetranychus test, OP-resistant (TETRUR spray treatment), Example 8; type: in vivo; conditions: application rate 20 g/ha, common bean leaf discs sprayed, after 6 days
Method: Tetranychus Test, OP-resistant (TETRUR Spray Treatment)
as §1
To prepare an active ingredient formulation, 1 part by weight of active ingredient is mixed with the stated amounts of solvent and emulsifier, and the concentrate is diluted with emulsifier-containing water to the desired concentration.
Leaf discs from the common bean (Phaseolus vulgaris) infested by all stages of the red spider mite (Tetranychus urticae) are sprayed with an active ingredient formulation of the desired concentration.
After 6 days, the efficacy in % is determined. 100% means that all spider mites were killed; 0% means that no spider mites were killed.

[4] = tested on: green peach aphid (Myzus persicae); assay: Myzus test (MYZUPE spray treatment), Example 17; type: in vivo; conditions: china cabbage leaf discs sprayed, after 6 days
Method: Myzus Test (MYZUPE Spray Treatment)
• Solvent: 78 parts by weight of acetone • 1.5 parts by weight of dimethylformamide • Emulsifier: 0.5 part by weight of alkylaryl polyglycol ether
To prepare an appropriate active ingredient formulation, 1 part by weight of active ingredient is mixed with the stated amounts of solvent and emulsifier, and the concentrate is diluted with emulsifier-containing water to the desired concentration. Leaf discs from china cabbage (Brassica pekinensis) infested by all stages of the green peach aphid (Myzus persicae) are sprayed with an active ingredient formulation of the desired concentration.
After 6 days, the efficacy in % is determined. 100% means that all aphids were killed; 0% means that no aphids were killed.

[5] = tested on: armyworm (Spodoptera frugiperda); assay: Spodoptera frugiperda test (SPODFR spray treatment), Example 15; type: in vivo; conditions: application rate 100 g/ha, maize leaf discs sprayed, after 7 days
Procedure, shortened: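 Maize leaf discs sprayed with active ingredient in acetone/DMF with alkylaryl polyglycol ether emulsifier, diluted in water, then populated with caterpillars after drying. Efficacy in % after 7 days: 100% all caterpillars killed, 0% none.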

Boophilus microplus = Boophilus microplus test (BOOPMI injection), Example 11; type: in vivo; conditions: application rate 20 μg/animal, injected into abdomen, after 7 days
Method: Boophilus microplus Test (BOOPMI Injection) • Solvent: dimethyl sulphoxide To prepare an appropriate active ingredient formulation, 10 mg of active ingredient are mixed with 0.5 ml of solvent and the concentrate is diluted with solvent to the desired concentration. The active ingredient solution is injected into the abdomen (Boophilus microplus), and the animals are transferred to dishes and stored in a climate-controlled room. The efficacy was assessed by the number of fertile eggs laid. After 7 days, the efficacy in % is determined. 100% means that none of the ticks has laid any fertile eggs.

| Structure (SMILES) | efficacy in % [1] | logP [2] | efficacy in % [3] | efficacy in % ([4]; application rate 500 g/ha) | efficacy in % [5] | efficacy in % ([4]; application rate 100 g/ha) | efficacy in % (fertile eggs laid) (Boophilus microplus) | logP ([2]; HPLC on reverse-phase column) |
| --- | --- | --- | --- | --- | --- | --- | --- | --- |
| O=C(/C=C/c1ccc(C(=O)NCc2ccnc(Cl)c2)c(C(F)(F)F)c1)NC(c1cccc(C(F)(F)F)c1)C(F)(F)F (stereo not shown) [Ia-66] | 100% | HPLC-MS: logP = 3.41; mass | 90% | – | – | – | – | – |
| O=C(/C=C/c1ccc(C(=O)NCc2cccnc2)c(C(F)(F)F)c1)NC(c1cccc(C(F)(F)F)c1)C(F)(F)F (stereo not shown) [Ia-50] | – | HPLC-MS: logP = 2.23; mass | 100% | – | – | – | – | – |
| O=C(/C=C/c1ccc(C(=O)N(C2CCOCC2)C2CC2)c(C(F)(F)F)c1)NC(c1cccc(C(F)(F)F)c1)C(F)(F)F (stereo not shown) [Ia-67] | 100% | HPLC-MS: logP = 3.77; mass | – | 90% | – | – | – | – |
| O=C(/C=C/c1ccc(C(=O)NC2CC2F)c(C(F)(F)F)c1)NC(c1cccc(C(F)(F)F)c1)C(F)(F)F (stereo not shown) [Ia-65] | 100% | HPLC-MS: logP = 3.33; mass | 90% | – | – | – | – | – |
| O=C(/C=C/c1ccc(C(=O)NC(CF)CF)c(C(F)(F)F)c1)NC(c1cccc(C(F)(F)F)c1)C(F)(F)F (stereo not shown) [Ia-143] | – | HPLC-MS: logP = 3.48; mass | – | – | 100% | 100% | 100% | – |
| O=C(/C=C/c1ccc(C(=O)Nc2ccncc2)c(Cl)c1)NC(c1cccc(C(F)(F)F)c1)C(F)(F)F (stereo not shown) [Ia-113] | 100% | HPLC-MS: logP = 1.92 mass | 100% | – | – | – | – | – |
| O=C(/C=C/c1ccc(C(=O)NCc2ncccn2)c(Cl)c1)NC(c1cccc(C(F)(F)F)c1)C(F)(F)F (stereo not shown) [Ia-153] | – | HPLC-MS: logP = 2.94; mass | – | – | – | 100% | 100% | – |
| COC(=O)C(C)NC(=O)c1ccc(/C=C/C(=O)NC(c2cccc(C(F)(F)F)c2)C(F)(F)F)cc1C(F)(F)F (stereo not shown) [Ia-132] | – | HPLC-MS: logP = 3.47; mass | – | – | – | 80% | 100% | – |
| O=C(/C=C/c1ccc(C(=O)NCc2ccncc2)c(C(F)(F)F)c1)NC(c1cccc(C(F)(F)F)c1)C(F)(F)F (stereo not shown) [Ia-49] | – | HPLC-MS: logP = 2; mass | 90% | – | – | – | – | – |
| CC(C)NC(=O)c1ccc(/C=C/C(=O)NC(c2cccc(C(F)(F)F)c2)C(F)(F)F)cc1Cl (stereo not shown) [Ia-150] | – | HPLC-MS: logP = 3.5; mass | – | – | – | 100% | 100% | – |
| CC(NC(=O)c1ccc(/C=C/C(=O)NC(c2cccc(C(F)(F)F)c2)C(F)(F)F)cc1Br)C1CC1 (stereo not shown) [Ia-93] | 100% | HPLC-MS: logP = 3.42 mass | 90% | – | – | – | – | – |
| O=C(/C=C/c1ccc(C(=O)NCC2CCCO2)c(C(F)(F)F)c1)NC(c1cccc(C(F)(F)F)c1)C(F)(F)F (stereo not shown) [Ia-52] | – | HPLC-MS: logP = 3.27; mass | 100% | – | – | – | – | – |
| O=C(/C=C/c1ccc(C(=O)NCc2ncccn2)c(C(F)(F)F)c1)NC(c1cccc(C(F)(F)F)c1)C(F)(F)F (stereo not shown) [Ia-127] | – | HPLC-MS: logP = 3.05; mass | – | – | 100% | 90% | 100% | – |
| COCC(C)NC(=O)c1ccc(/C=C/C(=O)NC(c2cccc(C(F)(F)F)c2)C(F)(F)F)cc1Cl (stereo not shown) [Ia-164] | – | HPLC-MS: logP = 3.33; mass | – | – | – | 100% | 100% | – |
| C#CC(C)NC(=O)c1ccc(/C=C/C(=O)NC(c2cccc(C(F)(F)F)c2)C(F)(F)F)cc1C(F)(F)F (stereo not shown) [Ia-138] | – | HPLC-MS: logP = 3.58; mass | – | – | 100% | 80% | 100% | – |
| O=C(/C=C/c1ccc(C(=O)NCc2ccccc2F)c(C(F)(F)F)c1)NC(c1cccc(C(F)(F)F)c1)C(F)(F)F (stereo not shown) [Ia-74] | 100% | HPLC-MS: logP = 3.77; mass | 90% | – | – | – | – | – |

| Structure (SMILES) | efficacy in % [1] | logP [2] | efficacy in % [3] | efficacy in % ([4]; application rate 500 g/ha) | efficacy in % [5] | efficacy in % ([4]; application rate 100 g/ha) | efficacy in % (fertile eggs laid) (Boophilus microplus) | logP ([2]; HPLC on reverse-phase column) |
| --- | --- | --- | --- | --- | --- | --- | --- | --- |
| CC(NC(=O)c1ccc(/C=C/C(=O)NC(c2cccc(C(F)(F)F)c2)C(F)(F)F)cc1Cl)c1ccccn1 (stereo not shown) [Ia-154] | – | HPLC-MS: logP = 3.45; mass | – | – | – | 90% | 100% | – |
| O=C(/C=C/c1ccc(C(=O)NC2CCOC2=O)c(C(F)(F)F)c1)NC(c1cccc(C(F)(F)F)c1)C(F)(F)F (stereo not shown) [Ia-136] | – | – | – | – | – | 100% | 100% | – |
| O=C(/C=C/c1ccc(C(=O)NC2CCC2)c(Br)c1)NC(c1cccc(C(F)(F)F)c1)C(F)(F)F (stereo not shown) [Ia-179] | – | HPLC-MS: logP = 3.61; mass | – | – | 83% | 90% | – | – |
| O=C(/C=C/c1ccc(C(=O)NC2CC2)c(C(F)(F)F)c1)NC(c1cccc(SC(F)(F)F)c1)C(F)(F)F (stereo not shown) [Ia-256] | – | HPLC-MS: logP = 3.51; mass | – | – | 100% | 100% | – | – |
| CN(C(=O)c1ccc(/C=C/C(=O)NC(c2cccc(C(F)(F)F)c2)C(F)(F)F)cc1C(F)(F)F)c1ccccn1 (stereo not shown) [Ia-239] | – | HPLC-MS: logP = 2.07; mass | – | – | 100% | 90% | – | – |
| CCC(=O)NCc1ccc(/C=C/C(=O)NC(c2ccc(F)c(Cl)c2)C(F)(F)F)cc1C(F)(F)F (stereo not shown) [Ia-251] | – | HPLC-MS: logP = 3.47; mass | – | – | 100% | 80% | – | – |
| CN(C)NC(=O)c1ccc(/C=C/C(=O)NC(c2cccc(C(F)(F)F)c2)C(F)(F)F)cc1C(F)(F)F (stereo not shown) [Ia-131] | – | HPLC-MS: logP = 3.05; mass | – | – | 100% | 100% | – | – |
| CCC(=O)NCc1ccc(/C=C/C(=O)NC(c2ccc(F)c(Cl)c2)C(F)(F)F)cc1F (stereo not shown) [Ia-277] | – | – | – | – | 100% | 100% | – | HPLC-MS: logP = 3.06; mass |
| O=C(/C=C/c1ccc(C(=O)NC2CC2)c(C(F)(F)F)c1)NC(c1ccc(F)c(Cl)c1)C(F)(F)F (stereo not shown) [Ia-279] | – | – | – | – | 100% | 100% | – | HPLC-MS: logP = 3.33; mass |
| CC(C)(C#N)NC(=O)c1ccc(/C=C/C(=O)NC(c2cccc(C(F)(F)F)c2)C(F)(F)F)cc1Cl (racemic) [Ia-195] | – | HPLC-MS: logP = 3.34; mass | – | – | 100% | 100% | – | – |
| O=C(/C=C/c1ccc(C(=O)NCc2ccccn2)c(C(F)(F)F)c1)NC(c1cccc(C(F)(F)F)c1)C(F)(F)F (stereo not shown) [Ia-36] | – | HPLC-MS: logP = 2.75; mass | 100% | – | – | – | 100% | – |
| O=C(/C=C/c1ccc(C(=O)NC2CC2)c(C(F)(F)F)c1)NC(c1ccc(F)c(C(F)(F)F)c1)C(F)(F)F (stereo not shown) [Ia-280] | – | – | – | – | 100% | 100% | – | HPLC-MS: logP = 3.46; mass |
| O=C(/C=C/c1ccc(C(=O)NC(CF)CF)c(Br)c1)NC(c1cccc(C(F)(F)F)c1)C(F)(F)F (stereo not shown) [Ia-175] | – | HPLC-MS: logP = 3.35; mass | – | – | 83% | 100% | – | – |
| CCC(=O)NCc1ccc(/C=C/C(=O)NC(c2ccc(F)c(C(F)(F)F)c2)C(F)(F)F)cc1 (stereo not shown) [Ia-282] | – | – | – | – | 100% | 90% | – | HPLC-MS: logP = 3.11; mass |
| O=C(/C=C/c1ccc(C(=O)NCC(F)F)c(Cl)c1)NC(c1cccc(C(F)(F)F)c1)C(F)(F)F (stereo not shown) [Ia-156] | – | HPLC-MS: logP = 3.34; mass | – | – | 100% | 100% | 100% | – |
| O=C(/C=C/c1ccc(C(=O)NCc2ccccn2)c(Cl)c1)NC(c1cccc(C(F)(F)F)c1)C(F)(F)F (stereo not shown) [Ia-21] | 100% | HPLC-MS: logP = 2.75; mass | – | 100% | – | – | 100% | – |
